Results from US7264956B2, “Compounds and methods for inhibiting axillary malodour” (Givaudan SA, priority 2001, dated 2007).
Entries after “also recorded” stand apart in the source; their conditions may differ. Like-named read-outs stand apart in the source and are kept apart here.

How the values were obtained:
[1] = target: T1, purified enzyme obtained from E.coli Top 10/pBADgIII AMRE (Corynebacterium striatum, UniProt Q8GGD4); experiment: High throughput screening for inhibitors (fluorescamine assay of released L-glutamine); format: biochemical; details: substrate Nα-lauroyl-L-glutamine 0.05 mM; Ki calculated from IC50
T1 construct: made in house; host or cells: E. coli TOP10 (Invitrogen), vector pBADgIIIA, arabinose-induced
T1 sequence (Q8GGD4 2-400): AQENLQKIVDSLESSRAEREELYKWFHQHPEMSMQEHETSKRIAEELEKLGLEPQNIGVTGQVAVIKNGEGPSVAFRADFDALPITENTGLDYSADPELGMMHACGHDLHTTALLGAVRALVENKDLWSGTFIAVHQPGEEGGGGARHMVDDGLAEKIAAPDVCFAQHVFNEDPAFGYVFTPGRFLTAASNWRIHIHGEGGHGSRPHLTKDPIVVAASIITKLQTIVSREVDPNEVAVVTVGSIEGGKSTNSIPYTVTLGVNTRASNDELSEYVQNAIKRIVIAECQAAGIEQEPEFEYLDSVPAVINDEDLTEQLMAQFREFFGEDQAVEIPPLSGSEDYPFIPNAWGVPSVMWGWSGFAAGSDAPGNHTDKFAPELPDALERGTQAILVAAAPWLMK
From the text: Compounds, which inhibit an enzyme of the present invention reduce the activity of the enzyme and may lead to a significant reduction of the release of malodour acids from odourless fresh sweat. […] The activity of the compounds as inhibitors may be measured in terms of either their IC50 values or their Ki values, both of which measures are well known to the person skilled in the art. As is well known, the IC50 value provides the concentration of an inhibitor needed to reduce enzyme velocity by half at a given substrate concentration. This value is dependent on the affinity of the substrate for the enzyme which is reflected in the value Km of the substrate. In this way, the Ki value may be determined for a given substrate and a given substrate concentration by measuring IC50 and then calculating according to the following formula
Potential inhibitory compounds were dissolved in Buffer A and aliquots of the solutions of different inhibitors (10 μl) were distributed to individual wells of a white microtiter plate. Purified enzyme obtained from the strain E.coli Top 10/pBADgIII AMRE was diluted in Buffer A (200 pg/ml final concentration) and added to the inhibitory compounds. After 10 min preincubation, the substrate (Nα-lauroyl-L-glutamine) was added to the individual wells to a final concentration of 0.05 mM. After 15 min of incubation, the amino-group of the released L-glutamine was derivatised by adding to each well of the microtiter plate 50 μl of a fluorescamine stock solution (2.5 mM in acetonitrile; fluorescamine obtained from Fluka, Buchs, Switzerland). After 5 min the fluorescence in the wells of the microtiter plates was measured with an excitation wavelength of 360 nm and an emission wavelength of 460 nm. The fluorescence of control wells with enzyme, substrate and DMSO only was then compared to the fluorescence in wells containing potential inhibitors. By varying the inhibitor concentration, the IC50 value for each compound was determined, and the Ki values were calculated.

[2] = target: T2, purified enzyme from Corynebacterium striatum A×20 (Corynebacterium striatum, UniProt Q8GGD4); format: biochemical; details: for enzyme activity after incubation with serin-/cystein protease inhibitor: purified enzyme
T2 construct: an enzyme may be isolated from cellular extracts obtained from wild-type bacterial strains; endogenous in cells; host or cells: Corynebacterium striatum Ax20 (DSM 14267), mechanically disrupted; crude extract or chromatographically purified enzyme
T2 sequence (Q8GGD4 2-400): as above
Procedure: Corynebacterium striatum A×20 was selected to isolate and purify the enzyme responsible for the cleavage of the precursor Nα-3-hydroxy-3-methyl-hexanoyl-L-glutamine. The strain was grown during 48 h in Mueller-Hinton broth amended with 0.01% Tween 80. A total volume of 2 L of culture was harvested by centrifugation. The pellet was washed in Buffer A (50 mM NaCl; 50 mM NaH2PO4/K2HPO4 buffer at pH 7) and this buffer was used throughout the whole purification procedure. The cells were disrupted mechanically by vortexing them with glass beads (425–600 μm, Sigma, St-Louis, USA) during 30 min at maximal speed. The crude cell lysate was then fractionated by precipitation with an increasing concentration of (NH4)2SO4. […] This enriched sample was dissolved in Buffer A and then sequentially passed over four chromatography columns: DEAE Sepharose CL-6B anion exchange resin (Pharmacia, Uppsala, Sweden; elution with a linear gradient from 0 to 800 mM KCI); Phenyl-Sepharose hydrophobic interaction resin (Pharmacia; elution with a linear gradient from 1000 mM to 0 mM of (NH4)2SO4; Mono Q strong anion exchange column on the FPLC system (Pharmacia; elution with a gradient from 0 to 800 mM KCl) and finally Mono P weak anion exchange column on the FPLC (elution with a gradient from 0–800 mM KCl in a 50 mM Bis-Tris buffer instead of Buffer A). […] Finally, the enzyme was subjected to LC-ESI-MS/MS analysis after tryptic digestion and to analysis of its N-terminal amino acid sequence.

[3] = test system: other Corynebacteria and some Staphylococci; experiment: Release of lauric acid from Nα-lauroyl-L-glutamine by axilla bacteria; format: cell-based; details: same experiment as Table 1, Nα-lauroyl-L-glutamine as substrate
Procedure: The axillary flora of 8 panellists was isolated with the detergent-scrub method: A 6 cm^2 area of the axilla was scrubbed with a phosphate buffer at pH 7 containing 1% Tween 80. The samples were spread-plated on tryptic soy agar amended with 5 g/L of Tween 80 and 1 g/L of lecithin. Single isolates obtained after 48 h incubation were subcultured and characterised. A total of 24 individual strains were identified based on colony and cell morphology, gram-reaction, lipophilic growth, lipase reaction and API identification kits (bioMerieux, France; coryneforms with the API coryne kit and cocci with the ID Staph 32 kit). The strains were grown overnight in a liquid medium (Mueller-Hinton amended with 0.01% Tween 80), harvested by centrifugation and resuspended to a final OD600 of 1 in a semi-synthetic medium (Per litre: 3 g KH2PO4, 1.9 g K2HPO4, 0.2 g yeast extract, 0.2 g MgSO4, 1.4 g NaCl, 1 g NH4Cl, 10 mg MnCl2, 1 mg Fe3Cl2, 1 mg CaCl2). […] The Corynebacteria which are able to conduct this biochemical reaction may be found in the group of the lipophilic and in the group of the non-lipophilic Corynebacteria. Therefore, a specific enzyme only present in some bacterial strains seems to be responsible for this cleavage. Since it releases axilla malodour the putative enzyme was named AMRE, which stands for ‘axillary malodour releasing enzyme’. […]

[4] = target: T3, enzyme extracted from Corynebacterium striatum A×20 (AMRE, Nα-acyl-glutamine-aminoacylase) (Corynebacterium striatum, UniProt Q8GGD4); experiment: Substrate specificity of the enzyme (capillary GC of released acid or alcohol); format: biochemical; details: for Cleavage by enzyme: 500 ppm in Buffer A, 24 h incubation
T3 construct: an enzyme may be isolated from cellular extracts obtained from wild-type bacterial strains; endogenous in cells; host or cells: Corynebacterium striatum Ax20 (DSM 14267), mechanically disrupted; crude extract or chromatographically purified enzyme
T3 sequence (Q8GGD4 2-400): as above
Procedure: To understand in detail the structural requirements of substrates, the enzyme extracted from Corynebacterium striatum A×20 was incubated with a wide variety of said compounds related to the originally isolated Nα-3-methyl-3-hydroxy-hexanoyl-L-glutamine present in sweat. Each compound was used at a concentration of 500 ppm in Buffer A, and analysis of released acid or alcohol was done by capillary GC after 24 h of incubation. First, different modifications at the N-terminus were tested.

[5] = target: T4, enzyme heterologously expressed in E. coli TOP10 (pBADgIIIAMRE) (Corynebacterium striatum, UniProt Q8GGD4); experiment: Enzyme assay with extracts of E. coli expressing the enzyme (release of lauric acid); format: biochemical; details: 500 ppm substrate
T4 construct: made in house; host or cells: E. coli TOP10 (Invitrogen), vector pBADgIIIA, arabinose-induced
T4 sequence (Q8GGD4 2-400): as above
From the text: The full-length sequence of the open reading frame coding for the enzyme was amplified with PCR from chromosomal DNA of A×20 using specific primers (SEQ ID NO 14 and SEQ ID NO 15). The amplified DNA fragment was then digested with the restriction enzymes NcoI and Hind III It was then ligated into the vector pBADIIIA (Invitrogen, Groningen, The Netherlands) pre-digested with the same enzymes. The resulting plasmid pBADgIIIAMRE was transformed into the host strain E. coli TOP10 (Invitrogen). This strain was grown in LB broth until it reached an optical density of about 0.5 at 600 nm. The culture was induced with arabinose (0.2% final concentration) incubated for 4 h, harvested by centrifugation and disrupted by ultrasonication. Enzyme assays with Na-lauryl-Glutamine as substrate were performed in Buffer A with an incubation time of 1 h and a substrate concentration of 500 ppm. Table 3 gives the activity of extracts obtained from wild-type cells and from extracts of the induced and non-induced modified strains expressing the enzyme.

[6] = target: T5, isolated enzyme (extracts of A×20) (Corynebacterium striatum, UniProt Q8GGD4); experiment: Low throughput screening for inhibitors, isolated enzyme (released lauric acid by GC); format: biochemical; details: substrate Nα-lauroyl-L-glutamine, 2 h
T5 construct: an enzyme may be isolated from cellular extracts obtained from wild-type bacterial strains; endogenous in cells; host or cells: Corynebacterium striatum Ax20 (DSM 14267), mechanically disrupted; crude extract or chromatographically purified enzyme
T5 sequence (Q8GGD4 2-400): as above
Procedure: (§1) Extracts of A×20 were prepared by mechanical disruption as described in Example 3. The extract (0.5 ml corresponding to 2 ml initial cell culture) was added to 3.5 ml of Buffer A and amended with 40 μl of substrate (Nα-lauroyl-L-glutamine, 5% stock solution in methanol). Parallel samples were additionally amended with potential inhibitory compounds to give a final concentration of 0.5 and 5 mM. The samples were incubated for 2 h and then extracted with MTBE and HCI and analysed for released lauric acid using capillary GC. By comparing the samples containing potential inhibitory compounds with control samples with enzyme and substrate only, the inhibition (%) was calculated. The same assay was also made either with purified enzyme from the wild-type strain (see example 3) or with extracts from E.coli Top 10/pBADgIII AMRE induced with arabinose (see example 6). Furthermore, the same assay was made using stationary phase living cells of A×20 instead of an isolated enzyme preparation. In this case successful uptake of the inhibitors into the cells and inhibition are measured simultaneously.

[7] = target: T6, enzyme activity in living cells of A×20 (Corynebacterium striatum, UniProt Q8GGD4); experiment: Low throughput screening for inhibitors, stationary phase living cells of A×20; format: cell-based; details: 5 mM; substrate Nα-lauroyl-L-glutamine, 2 h
T6 construct: stationary phase living cells of A×20; endogenous in cells; host or cells: Corynebacterium striatum Ax20, stationary-phase living cells
T6 sequence (Q8GGD4 2-400): as above
Procedure: as §1

In the case of NC(=O)CC[C@H](NC(=O)[C@@H](S)Cc1ccccc1)C(=O)O [Compound 5a], the Ki [1] is reported as 54 ± 1 nM.

Work on CC(C)C[C@H](S)C(=O)N[C@@H](CCC(N)=O)C(=O)O [Compound 5b] yielded a Ki [1] of 130 ± 10 nM.

Work on CCCC[C@H](S)C(=O)N[C@@H](CCC(N)=O)C(=O)O [Compound 5c] yielded a Ki [1] of 410 ± 20 nM.

In the case of NC(=O)CCC(CP(=O)(O)Cc1ccccc1)C(=O)O (stereo not shown) [Compound 8a], the Ki [1] is reported as 50 ± 3 nM.

Work on CC(C)CP(=O)(O)CC(CCC(N)=O)C(=O)O (stereo not shown) [Compound 8b] yielded a Ki [1] of 58 ± 4 nM.

Compound CCCCP(=O)(O)CC(CCC(N)=O)C(=O)O (stereo not shown) [Compound 8c] has a Ki [1] of 110 ± 10 nM.

For O=C(O)CN(CCN(CC(=O)O)CC(=O)O)CC(=O)O [EDTA], the “inhibition of the enzyme” value [2] was “completely inhibited”.

For CCCCCCCCCCCC(=O)N[C@@H](CCC(N)=O)C(=O)O [Nα-lauroyl-L-glutamine], the “release of lauric acid from substrate by axilla bacteria” value [3] was “can release lauric acid” and the “cleavage of substrate by enzyme (in words)” value [4] was “able to be cleaved; also recorded: can cleave”.

With O=S(=O)(F)Cc1ccccc1 [PMSF, Phenylmethylsulfonylfluoride] the “enzyme activity after incubation with serin-/cystein protease inhibitor” value [2] was “retained all its activity”.

With NCCc1ccc(S(=O)(=O)F)cc1 [Pefabloc SC, 4-(2-aminoethyl)-benzenesulfonylfluoride] the “enzyme activity after incubation with serin-/cystein protease inhibitor” value [2] was “retained all its activity”.

With [Cl-].[Cl-].[Zn+2] [ZnCl2] the “reversal of EDTA / o-phenantrolin inhibition” value ([2]; addition of 1 mM) was “could be reversed”.

For CCCCCCCCCCCC(=O)N[C@@H](CCC(N)=O)C(=O)O [compound 2, Nα-lauroyl-L-glutamine], the Cleavage by enzyme [4] was “+++ (+++ cleavage over 50%)”, the “release of lauric acid from Lauryl-Glutamine, 1 h incubation” value (from here on “release of lauric acid … 1 h incubation”) ([5]; extract of E. coli Top 10 (wild-type), 4 h after induction) was “below detection” and the “release of lauric acid … 1 h incubation” value ([5]; extract of E. coli Top 10/pBADgIIIAMRE not induced) was 23 ppm. The “release of lauric acid … 1 h incubation” value ([5]; extract of E. coli Top 10 induced, 4 h after induction) was 329 ppm.

For NC(=O)C[C@H](NC(=O)OCc1ccccc1)C(=O)O [compound 12, Carbobenzyloxy-L-asparagine], the Cleavage by enzyme [4] was “−” and the melting point was 102 to 104 °C.

For c1cnc2c(c1)ccc1cccnc12 [o-phenantrolin], the “inhibition of the enzyme” value ([2]; 1 mM) was “completely inhibited”, the “% inhibition of the isolated enzyme” value ([6]; 0.5 mM) was 100% and the “% inhibition of the isolated enzyme” value ([6]; 5 mM) was 100%. The “% inhibition of enzyme activity in living cells” value [7] was 90.3%.
